We go through 14 compounds from ChEMBL document CHEMBL6074623, “Carbamoylation at C-8 position of natural 3-arylcoumarin scaffold for the discovery of novel PARP-1 inhibitors with potent anticancer activity” (Eur J Med Chem, 2024).

In experiment [1] the test system is SUM149PT. Kind of experiment: Antiproliferative activity against human SUM149PT cells assessed as inhibition of cell growth at 20 uM incubated for 48 hrs by MTT assay relative to control. It counts as functional. Background: Formazan colour is commonly taken as a measure of viable cells.
The subject of experiment [2] is HCC1937. Kind of experiment: Antiproliferative activity against human HCC1937 cells assessed as inhibition of cell growth at 20 uM incubated for 48 hrs by MTT assay relative to control. It counts as functional.
The next experiment has as its system MDA-MB-436. Kind of experiment: Antiproliferative activity against human MDA-MB-436 cells assessed as inhibition of cell growth at 20 uM incubated for 48 hrs by MTT assay relative to control. It counts as functional.
Experiment [3] concerns SUM149PT. Kind of experiment: Antiproliferative activity against human SUM149PT cells assessed as inhibition of cell growth incubated for 48 hrs by MTT assay. It counts as functional, cell-based.
The test system of experiment [4] is HCC1937. Kind of experiment: Antiproliferative activity against human HCC1937 cells assessed as inhibition of cell growth incubated for 48 hrs by MTT assay. The format is functional, cell-based. The settings on record: HCC1937, 48 h.
In experiment [5] the test system is CAPAN-1. Kind of experiment: Antiproliferative activity against human CAPAN-1 cells assessed as inhibition of cell growth incubated for 48 hrs by MTT assay. It counts as functional, cell-based. The settings on record: CAPAN-1, 48 h.
For experiment [6], the system named is SUM149PT. Kind of experiment: Antiproliferative activity against human SUM149PT cells assessed as inhibition of cell growth at 5 uM incubated for 48 hrs by MTT assay relative to control. It counts as functional.
For experiment [7], the system named is HCC1937. Kind of experiment: Antiproliferative activity against human HCC1937 cells assessed as inhibition of cell growth at 5 uM incubated for 48 hrs by MTT assay relative to control. The format is functional.
The subject of experiment [8] is CAPAN-1. Kind of experiment: Antiproliferative activity against human CAPAN-1 cells assessed as inhibition of cell growth at 20 uM incubated for 48 hrs by MTT assay relative to control. It counts as functional.
Experiment [9] has as its system CAPAN-1. Kind of experiment: Antiproliferative activity against human CAPAN-1 cells assessed as inhibition of cell growth at 5 uM incubated for 48 hrs by MTT assay relative to control. The format is functional.

The inhibition is the share of the control response that was lost under treatment. In general, IC50 refers to the concentration that inhibits the measured activity by half.

With `NC(=O)c1cc(F)cc2cc(-c3ccc(O)cc3)c(=O)oc12`, the inhibition at 20 µM in the experiment with SUM149PT [1] is above 60%; in the experiment with HCC1937 [2], above 60%; in the experiment on MDA-MB-436, below 40%.

As for `COc1ccc(-c2cc3cc(F)cc(C(N)=O)c3oc2=O)cc1`, the results for the inhibition at 20 µM in the experiment on SUM149PT [1], with HCC1937 [2] and in the experiment on MDA-MB-436 were above 60%, above 60% and below 40%, respectively.

Turning to `NC(=O)c1cccc2cc(-c3cccc(O)c3)c(=O)oc12`, the inhibition at 20 µM with SUM149PT [1] was above 60%; in the experiment with HCC1937 [2], above 60%; in the experiment on MDA-MB-436, below 40%.

`NC(=O)c1cc(F)cc2cc(-c3ccccc3)c(=O)oc12`: the inhibition at 20 µM is above 60% with SUM149PT [1], above 60% in the experiment with HCC1937 [2] and below 40% in the experiment on MDA-MB-436.

As to `NC(=O)c1cc(F)cc2cc(-c3ccc4c(c3)OCO4)c(=O)oc12`, the inhibition at 20 µM in the experiment with SUM149PT [1] was above 60%; in the experiment with HCC1937 [2], above 60%; with MDA-MB-436, below 40%.

As for `NC(=O)c1cccc2cc(-c3ccsc3)c(=O)oc12`, the results for the inhibition at 20 µM with SUM149PT [1], with HCC1937 [2] and in the experiment with MDA-MB-436 were above 60%, above 60% and below 40%, respectively.

As to `COc1cc(OC)cc(-c2cc3cc(F)cc(C(N)=O)c3oc2=O)c1`, the figures for the inhibition at 20 µM in the experiment on SUM149PT [1], with HCC1937 [2] and in the experiment with MDA-MB-436 were above 60%, above 60% and below 40%, respectively.

For `NC(=O)c1cc(F)cc2cc(-c3cccs3)c(=O)oc12`, the IC50 in the experiment on SUM149PT [3] worked out at 0.62 µM; with HCC1937 [4], 1.86 µM; with CAPAN-1 [5] it was 17.2 µM. The inhibition at 20 µM is above 80% in the experiment on SUM149PT [1], above 80% in the experiment on HCC1937 [2] and below 40% in the experiment with MDA-MB-436. In addition, the inhibition at 5 µM with SUM149PT [6] and in the experiment on HCC1937 [7] was above 70% throughout.

`NC(=O)c1cccc2cc(-c3ccccc3O)c(=O)oc12`: the results for the inhibition at 20 µM with SUM149PT [1], in the experiment with HCC1937 [2] and in the experiment on MDA-MB-436 were above 60%, above 60% and below 40%, respectively.

Consider `COc1ccc(-c2cc3cc(F)cc(C(N)=O)c3oc2=O)cc1OC`, for which the IC50 in the experiment on SUM149PT [3] is 4.09 µM; in the experiment on HCC1937 [4], 3.67 µM; in the experiment with CAPAN-1 [5], 8.6 µM. In addition, the inhibition at 20 µM in the experiment on SUM149PT [1] is above 60%; in the experiment with HCC1937 [2], above 60%; with MDA-MB-436, below 40%.

For `NC(=O)c1cc(F)cc2cc(-c3cccc(O)c3)c(=O)oc12`, the inhibition at 20 µM in the experiment on SUM149PT [1] was above 60%; with HCC1937 [2], above 60%; in the experiment with MDA-MB-436 it was below 40%.

Take `COc1ccc(-c2cc3cc(F)cc(C(N)=O)c3oc2=O)cc1O`: the inhibition at 20 µM in the experiment on SUM149PT [1] is above 60%; in the experiment on HCC1937 [2], above 60%; with MDA-MB-436, below 40%.

With `NC(=O)c1cccc2cc(-c3ccccc3)c(=O)oc12`, the inhibition at 20 µM in the experiment on SUM149PT [1] was above 60%; in the experiment with HCC1937 [2], above 60%; in the experiment on CAPAN-1 [8], above 60%; in the experiment with MDA-MB-436, below 40%. In addition, in the experiment on CAPAN-1 [9], the inhibition at 5 µM was above 50%.

With `COc1cc(-c2cc3cc(F)cc(C(N)=O)c3oc2=O)ccc1O`, the results for the IC50 in the experiment with SUM149PT [3], with HCC1937 [4] and with CAPAN-1 [5] were 3.18 µM, 4.2 µM and 3.16 µM, respectively. The inhibition at 20 µM was above 60% in the experiment with SUM149PT [1], above 60% in the experiment on HCC1937 [2], above 60% in the experiment on CAPAN-1 [8] and below 40% in the experiment with MDA-MB-436. Also, the inhibition at 5 µM in the experiment with CAPAN-1 [9] is above 50%.
